Test results taken from PubChem BioAssay AID248 (DTP/NCI, 2004).
Inconclusive results and toxic doses are left out. Cut-off read from the data, not from the text of the source: active = T/C of 150% or more; inactive = T/C below 125%.

Test system: L1210 leukemia ip in BDF1 mice, survival T/C
Test: NCI In Vivo Anticancer Drug Screen. Data for tumor model L1210 Leukemia (intraperitoneal) in B6D2F1 (BDF1) mice
Conditions: endpoint: mean survival time, higher = longer survival
How it was run: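 Survival endpoint. Drug-treated group vs vehicle group, expressed as T divided by C. Tumor passaged by transplantation.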

[1] = dose: 100.0 mg/kg/injection, schedule: Q04DX002 (ip), vehicle: Klucel (hydroxypropylcellulose) (HPC)
[2] = dose: 100.0 mg/kg/injection, schedule: Q04DX003 (ip), vehicle: other
[3] = dose: 200.0 mg/kg/injection, schedule: Q04DX002 (ip), vehicle: Klucel (hydroxypropylcellulose) (HPC)
[4] = dose: 200.0 mg/kg/injection, schedule: Q04DX003 (ip), vehicle: other
[5] = dose: 400.0 mg/kg/injection, schedule: Q04DX002 (ip), vehicle: Klucel (hydroxypropylcellulose) (HPC)
[6] = dose: 400.0 mg/kg/injection, schedule: Q04DX003 (ip), vehicle: other
[7] = dose: 100.0 mg/kg/injection, schedule: Q04DX003 (ip), vehicle: saline
[8] = dose: 200.0 mg/kg/injection, schedule: Q04DX003 (ip), vehicle: saline
[9] = dose: 400.0 mg/kg/injection, schedule: Q04DX003 (ip), vehicle: saline
[10] = dose: 50.0 mg/kg/injection, schedule: Q01DX009 (ip), vehicle: saline with Tween-80
[11] = dose: 100.0 mg/kg/injection, schedule: Q01DX009 (ip), vehicle: saline with Tween-80
[12] = dose: 100.0 mg/kg/injection, schedule: Q01DX009 (ip), vehicle: Klucel (hydroxypropylcellulose) (HPC)
[13] = dose: 200.0 mg/kg/injection, schedule: Q01DX009 (ip), vehicle: Klucel (hydroxypropylcellulose) (HPC)
[14] = dose: 400.0 mg/kg/injection, schedule: Q01DX009 (ip), vehicle: Klucel (hydroxypropylcellulose) (HPC)

Measured: T/C

c1ccc(C(c2ccccc2)c2ccccn2)cc1
inactive: dose: 50.0 mg/kg/injection, schedule: Q04DX002 (ip), vehicle: other 95 % of control | [1] 98 % of control | dose: 100.0 mg/kg/injection, schedule: Q04DX002 (ip), vehicle: other 95 % of control | [2] 103 % of control | [3] 102 % of control | dose: 200.0 mg/kg/injection, schedule: Q04DX002 (ip), vehicle: other 95 % of control | [4] 117 % of control | [5] 106 % of control | [6] 111 % of control

[NH-]C(Cc1ccccc1)C(=O)O.[NH-]C(Cc1ccccc1)C(=O)O.[Ni+2] (configuration not stated)
inactive: dose: 12.5 mg/kg/injection, schedule: Q04DX003 (ip), vehicle: saline 95 % of control | dose: 25.0 mg/kg/injection, schedule: Q04DX003 (ip), vehicle: saline 95 % of control | dose: 50.0 mg/kg/injection, schedule: Q04DX003 (ip), vehicle: saline 98 % of control

O=C(NO)c1ccc(C(=O)NO)c(Br)c1
inactive: dose: 100.0 mg/kg/injection, schedule: Q01DX009 (ip), vehicle: saline 103 % of control | [7] 107 % of control | dose: 200.0 mg/kg/injection, schedule: Q01DX009 (ip), vehicle: saline 112 % of control | [8] 107 % of control | dose: 400.0 mg/kg/injection, schedule: Q01DX009 (ip), vehicle: saline 108 % of control | [9] 105 % of control

O=C1OC(=O)C2C1C1C=CC2C12CC2 (configuration not stated)
inactive: [10] 97 % of control | [11] 102 % of control | dose: 200.0 mg/kg/injection, schedule: Q01DX009 (ip), vehicle: saline with Tween-80 105 % of control

CC(C)N(C(=O)c1ccccc1Cl)c1ccccc1
inactive: [12] 92 % of control | [13] 103 % of control | [14] 103 % of control

COC(=O)C1C(O)C(C)C(O)OC1C(C)C(O)C(C)/C=C\C=C(/C)C(=O)Nc1c(C)c(OC(C)=O)c2c(c1O)C(=O)C(C)=C1OCOC(/C(C)=C/C(C)=O)=C12 (configuration not stated)
inactive: [7] 95 % of control | [8] 102 % of control | [9] 93 % of control

O=S(O)c1ncnc2nc[nH]c12
inactive: [7] 101 % of control | [8] 106 % of control | [9] 95 % of control

O=C(CC(O)(C(F)(F)F)C(F)(F)F)c1ccc([N+](=O)[O-])cc1
inactive: dose: 50.0 mg/kg/injection, schedule: Q04DX003 (ip), vehicle: other 102 % of control | [2] 100 % of control | [4] 100 % of control | [6] 104 % of control

CCOC(=O)c1ccc(N)cc1
inactive: dose: 37.5 mg/kg/injection, schedule: Q01DX009 (ip), vehicle: saline with Tween-80 107 % of control | dose: 50.0 mg/kg/injection, schedule: Q01DX001 (ip), vehicle: saline with Tween-80 97 % of control | dose: 75.0 mg/kg/injection, schedule: Q01DX009 (ip), vehicle: saline with Tween-80 107 % of control | dose: 100.0 mg/kg/injection, schedule: Q01DX001 (ip), vehicle: saline with Tween-80 105 % of control | dose: 150.0 mg/kg/injection, schedule: Q01DX009 (ip), vehicle: saline with Tween-80 91 % of control | dose: 200.0 mg/kg/injection, schedule: Q01DX001 (ip), vehicle: saline with Tween-80 94 % of control

Cc1cc[n+]([O-])nc1N(C)N
inactive: dose: 50.0 mg/kg/injection, schedule: Q04DX002 (ip), vehicle: saline 101 % of control | dose: 100.0 mg/kg/injection, schedule: Q04DX002 (ip), vehicle: saline 104 % of control | dose: 200.0 mg/kg/injection, schedule: Q04DX002 (ip), vehicle: saline 96 % of control

CCOC(=O)C1C2C=CC(N3C(=O)c4ccccc4C3=O)CC21 (configuration not stated)
inactive: dose: 100.0 mg/kg/injection, schedule: Q01DX009 (ip), vehicle: gum acacia 92 % of control | dose: 200.0 mg/kg/injection, schedule: Q01DX009 (ip), vehicle: gum acacia 91 % of control | dose: 400.0 mg/kg/injection, schedule: Q01DX009 (ip), vehicle: gum acacia 97 % of control

Cc1ccc2c(ccc3cc(C)ccc32)c1
inactive: [1] 122 % of control | [3] 101 % of control | [5] 97 % of control

CC1CC=C(C2CC(C)CC(N(C)C)C2=N)CC1 (configuration not stated)
inactive: dose: 100.0 mg/kg/injection, schedule: Q01DX009 (sc), vehicle: olive oil, sesame oil, peanut oil 101 % of control | dose: 100.0 mg/kg/injection, schedule: Q04DX003 (sc), vehicle: olive oil, sesame oil, peanut oil 108 % of control | dose: 200.0 mg/kg/injection, schedule: Q01DX009 (sc), vehicle: olive oil, sesame oil, peanut oil 92 % of control | dose: 200.0 mg/kg/injection, schedule: Q04DX003 (sc), vehicle: olive oil, sesame oil, peanut oil 103 % of control | dose: 400.0 mg/kg/injection, schedule: Q04DX003 (sc), vehicle: olive oil, sesame oil, peanut oil 106 % of control

N#CCC(C#N)N1CCOCC1 (configuration not stated)
inactive: dose: 25.0 mg/kg/injection, schedule: Q01DX009 (ip), vehicle: saline with Tween-80 92 % of control | [10] 104 % of control | [11] 93 % of control | dose: 100.0 mg/kg/injection, schedule: Q04DX003 (ip), vehicle: saline with Tween-80 97 % of control

CCOC(=O)Nc1cc(NC(c2ccccc2)c2ccccc2)c(N)c(N)n1
inactive: dose: 100.0 mg/kg/injection, schedule: Q01DX001 (ip), vehicle: carboxymethylcellulose (CMC) 102 % of control | [12] 98 % of control | dose: 200.0 mg/kg/injection, schedule: Q01DX001 (ip), vehicle: carboxymethylcellulose (CMC) 122 % of control | [13] 98 % of control | dose: 400.0 mg/kg/injection, schedule: Q01DX001 (ip), vehicle: carboxymethylcellulose (CMC) 107 % of control | [14] 91 % of control

COc1ccc(OC)c(NC(=O)Nc2ccccc2C(F)(F)F)c1
inactive: [12] 102 % of control | [13] 89 % of control | [14] 95 % of control

CCOC(=O)CC1NCCc2c1[nH]c1ccccc21 (configuration not stated)
inactive: dose: 6.25 mg/kg/injection, schedule: Q01DX001 (ip), vehicle: saline sonified 93 % of control | dose: 12.5 mg/kg/injection, schedule: Q01DX001 (ip), vehicle: saline sonified 98 % of control | dose: 25.0 mg/kg/injection, schedule: Q01DX001 (ip), vehicle: saline sonified 97 % of control

O=C1NC(=O)C2=C1SCCS2
inactive: dose: 100.0 mg/kg/injection, schedule: Q04DX002 (ip), vehicle: saline with Tween-80 91 % of control | dose: 200.0 mg/kg/injection, schedule: Q04DX002 (ip), vehicle: saline with Tween-80 109 % of control | dose: 400.0 mg/kg/injection, schedule: Q04DX002 (ip), vehicle: saline with Tween-80 109 % of control

NC(N)=N/N=C(\c1ccccc1)C(O)c1ccccc1 (configuration not stated)
inactive: dose: 15.0 mg/kg/injection, schedule: Q01DX Z (ip), vehicle: carboxymethylcellulose (CMC) 106 % of control | dose: 30.0 mg/kg/injection, schedule: Q01DX Z (ip), vehicle: carboxymethylcellulose (CMC) 101 % of control | dose: 60.0 mg/kg/injection, schedule: Q01DX Z (ip), vehicle: carboxymethylcellulose (CMC) 102 % of control | dose: 60.0 mg/kg/injection, schedule: Q01DX Z (oral), vehicle: carboxymethylcellulose (CMC) 96 % of control | dose: 120.0 mg/kg/injection, schedule: Q01DX Z (ip), vehicle: carboxymethylcellulose (CMC) 98 % of control | dose: 120.0 mg/kg/injection, schedule: Q01DX Z (oral), vehicle: carboxymethylcellulose (CMC) 90 % of control | dose: 240.0 mg/kg/injection, schedule: Q01DX Z (oral), vehicle: carboxymethylcellulose (CMC) 90 % of control | dose: 480.0 mg/kg/injection, schedule: Q01DX Z (oral), vehicle: carboxymethylcellulose (CMC) 93 % of control

COCCCN1CC2CCCC1O2 (configuration not stated)
inactive: dose: 50.0 mg/kg/injection, schedule: Q01DX001 (ip), vehicle: saline 91 % of control | dose: 100.0 mg/kg/injection, schedule: Q01DX001 (ip), vehicle: saline 95 % of control | dose: 200.0 mg/kg/injection, schedule: Q01DX001 (ip), vehicle: saline 97 % of control

O=S(=O)(OCC(O)C1OCOC2COCOC21)c1ccccc1 (configuration not stated)
inactive: dose: 100.0 mg/kg/injection, schedule: Q01DX001 (ip), vehicle: Klucel (hydroxypropylcellulose) (HPC) 112 % of control | dose: 200.0 mg/kg/injection, schedule: Q01DX001 (ip), vehicle: Klucel (hydroxypropylcellulose) (HPC) 93 % of control | dose: 400.0 mg/kg/injection, schedule: Q01DX001 (ip), vehicle: Klucel (hydroxypropylcellulose) (HPC) 97 % of control
